# From patent publication US12502374B2, “Composition for preventing, alleviating, or treating inflammatory disease containing isookanin or salt thereof as active ingredient” (BioSpectrum, Inc., priority 2020, dated 2025)
# System: HMEC-1
# Assay: PGE2-induced vascular endothelial cell migration (scratch assay)
# Assay type: cell-based, human
# Conditions: 2 hours pretreatment; 20 μM PGE2, 24 hours; FIG. 9
# Procedure: Human vascular endothelial cells (HMEC-1) were seeded in a 12-well plate at a density of 2×10^5 cells per well and cultured in an incubator for 24 hours at 37° C. under 5% CO2. After the cells in each well were grown to 80% confluency, the central part of each well was scratched using a yellow pipette tip. Next, each well was pretreated with each concentration of isookanin for 2 hours and then treated with 20 μM PGE2 and incubated for 24 hours. As a negative control, 100 ng/ml of VEGF was used. After 24 hours of incubation, the degree of vascular cell migration was observed using a microscope, and the results were photographed with a microscope camera and shown in FIG. 9.
smiles,measurement,value
O=C1C[C@@H](c2ccc(O)c(O)c2)Oc2c1ccc(O)c2O [isookanin],inhibition of human vascular endothelial cell migration induced by PGE2,effectively inhibiting human vascular endothelial cell migration induced by PGE2
